Measured values from patent US12344610B2, “APOL1 inhibitors and methods of use” (Maze Therapeutics, Inc., priority 2022, dated 2025).

The molecules below were run against T1, APOL1 G2 (Homo sapiens, UniProt O14791, DEL388-389) (assay: APOL1-mediated calcium transport (calcium influx) assay, HEK T-REx/GCaMP6f/APOL1 G2 K6.3 cells, FLIPR TETRA). Details: prevention of calcium influx; geometric mean of at least 2 assay runs; † = average of a technical replicate from a single assay run.
T1 construct: expressed in transfected cells; host or cells: HEK293 T-REx clonal line stably expressing GCaMP6f (HEK T-REx/GCaMP6f/APOL1 G2 K6.3), doxycycline induced
T1 sequence (O14791 with tags, fused parts or gaps DEL388-389): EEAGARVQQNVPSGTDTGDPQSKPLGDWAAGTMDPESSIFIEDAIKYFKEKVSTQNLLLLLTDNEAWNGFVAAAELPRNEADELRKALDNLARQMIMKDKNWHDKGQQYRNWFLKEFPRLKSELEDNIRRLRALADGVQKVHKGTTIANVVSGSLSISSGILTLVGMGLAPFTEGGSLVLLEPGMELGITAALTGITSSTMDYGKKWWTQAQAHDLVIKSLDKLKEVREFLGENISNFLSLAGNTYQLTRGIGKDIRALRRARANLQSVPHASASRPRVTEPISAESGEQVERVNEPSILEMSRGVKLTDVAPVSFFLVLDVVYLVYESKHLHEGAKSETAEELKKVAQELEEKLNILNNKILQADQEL
Assay type: cell-based
How it was run: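 A HEK293 T-REx clone stably expressing GCaMP6f had APOL1 G2 induced with doxycycline (20 ng/mL solution added) for 6 h. Cells were then washed into Ca2+-free Tyrode's buffer (pH 7.4) and preincubated with compounds (duplicate 8-point) for 10 min at room temperature. Ca2+ injection to 5 mM final produced FLIPR GCaMP fluorescence, giving AC50 for influx inhibition (geometric mean, ≥2 runs).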

SMILES	AC50
CS(=O)(=O)C1(c2ccc(OCCN3CCC4(CC3)C(=O)Nc3ccc(C#N)cc34)cc2)CC1 [Compound 101, 1′-{2-[4-(1-methanesulfonylcyclopropyl)phenoxy]ethyl}-2-oxo-1,2-dihydrospiro[indole-3,4′-piperidine]-5-carbonitrile]	634 nM
CS(=O)(=O)C1(c2ccc(OCCN3CCC4(CC3)C(=O)Nc3ccc(Cl)cc34)cc2)CC1 [Compound 102, 5-chloro-1′-{2-[4-(1-methanesulfonylcyclopropyl)phenoxy]ethyl}-1,2-dihydrospiro[indole-3,4′-piperidin]-2-one]	671 nM
CN1c2ccc(OCCN3CCC4(CC3)C(=O)Nc3ccc(Cl)cc34)cc2CCS1(=O)=O [Compound 103, 6-(2-{5-chloro-2-oxo-1,2-dihydrospiro[indole-3,4′-piperidin]-1′-yl}ethoxy)-1-methyl-3,4-dihydro-1H-2λ^6,1-benzothiazine-2,2-dione]	591 nM
CN1c2ccc(OCCN3CCC4(CC3)C(=O)Nc3ccc(C#N)cc34)cc2CCS1(=O)=O [Compound 104, 1′-{2-[(1-methyl-2,2-dioxo-3,4-dihydro-1H-2λ^6,1-benzothiazin-6-yl)oxy]ethyl}-2-oxo-1,2-dihydrospiro[indole-3,4′-piperidine]-5-carbonitrile]	408 nM
N#Cc1ccc2c(c1)C1(CCN(CCOc3ccc4c(c3)CCC(=O)N4CC(F)F)CC1)C(=O)N2 [Compound 105, 1′-(2-{[1-(2,2-difluoroethyl)-2-oxo-1,2,3,4-tetrahydroquinolin-6-yl]oxy}ethyl)-2-oxo-1,2-dihydrospiro[indole-3,4′-piperidine]-5-carbonitrile]	392 nM
O=C1CCc2cc(OCCN3CCC4(CC3)C(=O)Nc3ccc(Cl)cc34)ccc2N1CC(F)F [Compound 106, 5-chloro-1′-(2-{[1-(2,2-difluoroethyl)-2-oxo-1,2,3,4-tetrahydroquinolin-6-yl]oxy}ethyl)-1,2-dihydrospiro[indole-3,4′-piperidin]-2-one]	756 nM
CS(=O)(=O)c1ccc(OCCN2CCC3(CC2)C(=O)Nc2ccc(C#N)cc23)cc1C(F)(F)F [Compound 107, 1′-{2-[4-methanesulfonyl-3-(trifluoromethyl)phenoxy]ethyl}-2-oxo-1,2-dihydrospiro[indole-3,4′-piperidine]-5-carbonitrile]	712 nM
CS(=O)(=O)c1ccc(OCCN2CCC3(CC2)C(=O)Nc2ccc(Cl)cc23)cc1C(F)(F)F [Compound 108, 5-chloro-1′-{2-[4-methanesulfonyl-3-(trifluoromethyl)phenoxy]ethyl}-1,2-dihydrospiro[indole-3,4′-piperidin]-2-one]	860 nM
CS(=O)(=O)C1(c2ccc(OCCN3CCC4(CC3)C(=O)Nc3ccc(C#N)cc34)cc2)COC1 [Compound 109, 1′-{2-[4-(3-methanesulfonyloxetan-3-yl)phenoxy]ethyl}-2-oxo-1,2-dihydrospiro[indole-3,4′-piperidine]-5-carbonitrile]	1190 nM
Cc1cc(OCCN2CCC3(CC2)C(=O)Nc2ccc(Cl)cc23)ccc1S(C)(=O)=O [Compound 110, 5-chloro-1′-[2-(4-methanesulfonyl-3-methylphenoxy)ethyl]-1,2-dihydrospiro[indole-3,4′-piperidin]-2-one]	772 nM
Cc1cc(OCCN2CCC3(CC2)C(=O)Nc2ccc(C#N)cc23)ccc1S(C)(=O)=O [Compound 111, 1′-[2-(4-methanesulfonyl-3-methylphenoxy)ethyl]-2-oxo-1,2-dihydrospiro[indole-3,4′-piperidine]-5-carbonitrile]	919 nM
O=C1Nc2ccc(Cl)cc2C12CCN(CCOc1ccc(S(=O)(=O)C(F)F)cc1)CC2 [Compound 112, 5-chloro-1′-[2-(4-difluoromethanesulfonylphenoxy)ethyl]-1,2-dihydrospiro[indole-3,4′-piperidin]-2-one]	746 nM
N#Cc1ccc2c(c1)C1(CCN(CCOc3ccc(S(=O)(=O)C(F)F)cc3)CC1)C(=O)N2 [Compound 113, 1′-[2-(4-difluoromethanesulfonylphenoxy)ethyl]-2-oxo-1,2-dihydrospiro[indole-3,4′-piperidine]-5-carbonitrile]	524 nM
O=C1CCc2cc(OCCN3CCC4(CC3)C(=O)Nc3ccc(Cl)cc34)ccc2N1[C@H]1C[C@@H](O)C1 [Compound 114, 5-chloro-1′-[2-({2-oxo-1-[(cis)-3-hydroxycyclobutyl]-1,2,3,4-tetrahydroquinolin-6-yl}oxy)ethyl]-1,2-dihydrospiro[indole-3,4′-piperidin]-2-one]	529 nM
CN(c1c(F)cc(OCCN2CCC3(CC2)C(=O)Nc2ccc(Cl)cc23)cc1F)S(C)(=O)=O [Compound 127, N-[4-(2-{5-chloro-2-oxo-1,2-dihydrospiro[indole-3,4′-piperidin]-1′-yl}ethoxy)-2,6-difluorophenyl]-N-methylmethanesulfonamide]	542 nM
CN(c1c(F)cc(OCCN2CCC3(CC2)C(=O)Nc2ccc(C#N)cc23)cc1F)S(C)(=O)=O [Compound 128, N-[4-(2-{5-cyano-2-oxo-1,2-dihydrospiro[indole-3,4′-piperidin]-1′-yl}ethoxy)-2,6-difluorophenyl]-N-methylmethanesulfonamide]	537 nM
Cc1cc(OCCN2CCC3(CC2)C(=O)Nc2ccc(Cl)cc23)cc(C)c1S(C)(=O)=O [Compound 129, 5-chloro-1′-[2-(4-methanesulfonyl-3,5-dimethylphenoxy)ethyl]-1,2-dihydrospiro[indole-3,4′-piperidin]-2-one]	352 nM
Cn1c(=O)oc2cc(OCCN3CCC4(CC3)C(=O)Nc3ccc(Cl)cc34)ccc21 [Compound 131, 5-chloro-1′-{2-[(3-methyl-2-oxo-2,3-dihydro-1,3-benzoxazol-6-yl)oxy]ethyl}-1,2-dihydrospiro[indole-3,4′-piperidin]-2-one]	464 nM
Cn1c(=O)oc2cc(OCCN3CCC4(CC3)C(=O)Nc3ccc(C#N)cc34)ccc21 [Compound 132, 1′-{2-[(3-methyl-2-oxo-2,3-dihydro-1,3-benzoxazol-6-yl)oxy]ethyl}-2-oxo-1,2-dihydrospiro[indole-3,4′-piperidine]-5-carbonitrile]	492 nM
CS(=O)(=O)C1(c2c(F)cc(OCCN3CCC4(CC3)C(=O)Nc3ccc(Cl)cc34)cc2F)COC1 [Compound 136, 5-chloro-1′-{2-[3,5-difluoro-4-(3-methanesulfonyloxetan-3-yl)phenoxy]ethyl}-1,2-dihydrospiro[indole-3,4′-piperidin]-2-one]	800 nM
CC(c1c(F)cc(OCCN2CCC3(CC2)C(=O)Nc2ccc(C#N)cc23)cc1F)S(C)(=O)=O (stereo not shown) [Compound 137, 1′-{2-[3,5-difluoro-4-(1-methanesulfonylethyl)phenoxy]ethyl}-2-oxo-1,2-dihydrospiro[indole-3,4′-piperidine]-5-carbonitrile]	597 nM
Cc1cc(OCCN2CCC3(CC2)C(=O)Nc2ccc(C#N)cc23)cnc1S(C)(=O)=O [Compound 140, 1′-{2-[(6-methanesulfonyl-5-methylpyridin-3-yl)oxy]ethyl}-2-oxo-1,2-dihydrospiro[indole-3,4′-piperidine]-5-carbonitrile]	807 nM
CC(C)N1C(=O)Cc2cc(OCCN3CCC4(CC3)C(=O)Nc3ccc(C#N)cc34)ccc21 [Compound 144, 2-oxo-1′-(2-{[2-oxo-1-(propan-2-yl)-2,3-dihydro-1H-indol-5-yl]oxy}ethyl)-1,2-dihydrospiro[indole-3,4′-piperidine]-5-carbonitrile]	708 nM
CC(C)N1C(=O)Cc2cc(OCCN3CCC4(CC3)C(=O)Nc3ccc(Cl)cc34)ccc21 [Compound 145, 5-chloro-1′-(2-{[2-oxo-1-(propan-2-yl)-2,3-dihydro-1H-indol-5-yl]oxy}ethyl)-1,2-dihydrospiro[indole-3,4′-piperidin]-2-one]	465 nM
CN1Cc2cc(OCCN3CCC4(CC3)C(=O)Nc3ccc(Cl)cc34)ccc2C1=O [Compound 146, 5-chloro-1′-{2-[(2-methyl-1-oxo-2,3-dihydro-1H-isoindol-5-yl)oxy]ethyl}-1,2-dihydrospiro[indole-3,4′-piperidin]-2-one]	279 nM
CN=S(C)(=O)c1ccc(OCCN2CCC3(CC2)C(=O)Nc2ccc(Cl)cc23)cc1 (stereo not shown) [Compound 147, 5-chloro-1′-(2-{4-[methyl(methylimino)oxo-λ^6-sulfanyl]phenoxy}ethyl)-1,2-dihydrospiro[indole-3,4′-piperidin]-2-one]	492 nM
CN=S(C)(=O)c1ccc(OCCN2CCC3(CC2)C(=O)Nc2ccc(C#N)cc23)cc1 (stereo not shown) [Compound 150, 1′-(2-{4-[methyl(methylimino)oxo-λ^6-sulfanyl]phenoxy}ethyl)-2-oxo-1,2-dihydrospiro[indole-3,4′-piperidine]-5-carbonitrile]	629 nM
CN1CCc2cc(OCCN3CCC4(CC3)C(=O)Nc3ccc(Cl)cc34)ccc2S1(=O)=O [Compound 153, 6-(2-{5-chloro-2-oxo-1,2-dihydrospiro[indole-3,4′-piperidin]-1′-yl}ethoxy)-2-methyl-3,4-dihydro-2H-1λ^6,2-benzothiazine-1,1-dione]	826 nM
